Assays:
Inner forearm = experiment: Reduction of irritation potential, 5 D Intravitaltomography (taum); type: in vivo, human; details: 0.3% of retinol occlusively applied onto inner forearm; taum at start point and 48 h after application
Text: Reduction of Irritation can be detected by any known analytical test method which can be e.g. 5D IVT, ELISA, Patch Test. HET Cam Test using skin, skin models, cells. This effect depends on the active lipophilic ingredient encapsulated.
Data which measured in accordance with the method as described in “From Morphology To Biochemical State—Intravital Multiphoton Fluorescence Lifetime Imaging Of Inflamed Human Skin”, by Volker Huck et al. published in www.nature.com/scientificreports, 23 Mar. 2016; the disclosure of which is hereby incorporated by reference. Referring now to FIGS. 3 and 4, FIGS. 3 and 4 illustrate the Taum measurement. The delivery system of the invention can achieve Tau values of about 100 ps to about 3000 ps, about 300 ps to about 2500 ps and in some cases about 500 ps to about 1500 ps in the Stratum granulosum and Stratum spinosum.

[1] = HPLC determination of retinol (stabilization of active ingredient); type: physicochemical; details: UV 323 nm
Procedure: Active ingredients can be detected by any known analytical test method which can be e.g. HPLC, GG, ESR depending on the composition. This effect depends on the active lipophilic ingredient encapsulated.
Test Method used: HPLC Chromatography
Instrumentation: Liquid Chromatograph Agilent 1100 with autosampler, UV-detector
Column: Reprosil C-18-AQ; 5μ, 200*4 mm (Fa. Dr. Maisch) with precolumn: • Column Temp.: 20° C. • Mobile Phase: Acetonitrile/THF/Water (54/38/8 v/v/v) • Flow Rate: 1.0 ml/min • Gradient Program: Isocratic • Detection: UV-Detector; 323 nm • Injection Volume: 5 μl; Autosampler • Retention Time: 1.6 min
Reagents: • Acetonitrile (Roth, gradient grade) • THF (Roth, gradient grade) • 2-Propanol (Roth, gradient grade) • Water, twice-distilled • Retinol 50C (BASF, Cosmetic Quality, approx, 50%)—standard • (If not stated otherwise the reagents are used as purchased without any further purification)

stabilization of Retinol (HPLC) [1]: degrades
Compound: CC1=C(/C=C/C(C)=C/C=C/C(C)=C/CO)C(C)(C)CCC1 [retinol, Retinol]
irritation potential (Inner forearm): significantly higher

Source: patent US20230301896A1, “COMPOSITION FOR PENETRATING SUGAR BASED DELIVERY SYSTEM” (Evonik Operations GmbH, priority 2015, published 2023)
